These results are taken from patent US4547521A, “16-Methoxy-16-methyl prostaglandin E1 derivatives, a process for preparing them and their use as gastroprotective agents” (Gruppo Lepetit S.p.A., priority 1979, dated 1985).

One experiment deals with gastric acid secretion. The experiment is described as follows: Inhibition of gastric acid secretion in dogs, histamine at fixed dose of 160 μg/kg/h, oral. As to conditions: histamine fixed dose 160 μg/kg/h. It counts as in vivo, mongrel dogs. On the procedure: The compounds of the present invention are also potent inhibitors of the gastric secretion when they are administered to laboratory animals by the oral route. […] The gastric antisecretory properties of these compounds when administered per os were evaluated on the basis of their effectiveness in inhibiting the hyperacidity induced by histamine in dogs. Histamine, which is a potent stimulator of the acidic gastric secretion (see Bertaccini et al., Eur. Journ. Pharmacol., 28, 360, 1974), was administered intravenously by continuous infusion during the experiments.
A group of five mongrel dogs was used in the experiment. […]
To evaluate the gastric antisecretory oral activity of the compounds of the invention, they were administered by gavage into the main stomach at a given dosage, expressed as μg/kg/h, dissolved in 1 ml of physiological solution, 60 minutes before the secreting agent. […]
The compounds of the present invention are potent inhibitors of also gastric hypersecretion also when administered intravenously. […] The pH of the fluid emerging from a cannula in the pylorus is continuously recorded by means of a glass-electrode connected to a direct reading pH-meter and thence to a recorder. […]

The test system of experiment [1] is gastric ulcers caused by indomethacin. The experiment is described as follows: Cytoprotective activity: inhibition of gastric ulcers caused by indomethacin in rats, oral. It counts as in vivo. Conditions: indomethacin i.p. The procedure:
More particularly, the cytoprotective activity of the compounds of the present invention was evaluated on the basis of their effectiveness in inhibiting the formation and reducing the severity of gastric ulcers in rats caused by the administration of a high dose of 1-(p-chlorobenzoyl)-5-methoxy-2-methyl-3-indolyl-acetic acid (indomethacin). The cytoprotective activity occurred at oral doses which are by far lower than those which cause inhibition of the gastric acid secretion. In these experiments the rats were deprived of food the day before the beginning of the experiments but water was given ad libitum. The compounds to be tested were administered by the oral route as a suspension in 0.5% aqueous methocel solution (5 animals/dose), while indomethacin was administered intraperitoneally at […] in the same vehicle. Another group of rats (controls) was administered only with the ulcerogenic agent. The cytoprotective properties of the compounds of this invention were then expressed as "percent inhibition of the ulcers with respect to controls", which can be easily calculated by the following ratio: [formula] wherein A.U.D.(controls) is the average ulceration degree of the stomachs of the controls and A.U.D.(treated animals) is the average ulceration degree of the stomachs of the animals which received both indomethacin and the compound to be tested.
The A.U.D.s are calculated according to the method described by Thuillier et al. Chim. Ther., 3, 53, 1968, by examining the stomachs of the laboratory animals for possible ulcerations and assigning a score from 0 to 4 which depends on the number and the severity of the observed ulcerations: 0 indicates absence of any ulceration on the gastric wall; 4 indicates perforating ulcerations. A single ulceration degree (S.U.D.) is then calculated for each single stomach. The sum of the S.U.D.s divided by the number of the animals affords the A.U.D. of the stomachs of each group of animals.

Experiment [2] concerns gastric hypersecretion induced by histamine. The experiment is described as follows: Inhibition of histamine-induced gastric hypersecretion in anesthetized perfused-stomach rats (Ghosh and Schild), intravenous. It counts as in vivo. Conditions: i.v., histamine 1.5 mg/kg/h. The procedure:
The compounds of the present invention are potent inhibitors of also gastric hypersecretion also when administered intravenously. This has been confirmed by evaluating the effects, on gastric hypersecretion induced by histamine, produced by a single intravenous administration to anesthetized rats of the compounds of the present invention. The experiments were carried out essentially according to the methodology described by Ghosh and Schild in Brit. J. Pharm. (1958), 13, 54-61. According to this technique the rat is anesthetized with urethane and its stomach is perfused with a dilute sodium hydroxide solution (N/4000 NaOH at a rate of about 1 ml/min) by way of the oesophagus. The pH of the fluid emerging from a cannula in the pylorus is continuously recorded by means of a glass-electrode connected to a direct reading pH-meter and thence to a recorder. In passing through the stomach, the perfusate collects sufficient buffer to act as an approximately linear buffer system over the relevant range, so that the change in pH becomes a measure of acid secretion.
When the N/4000 NaOH solution is collected after having passed through the unstimulated stomach it gives an initial value of about 6-6.5 (pHunstimulated stomach). A secretory stimulant, histamine in the present case, is then administered intravenously by continuous infusion at a dose of 1.5 mg/kg/h. After a few minutes the pH begins to fall and after about 10 to 20 minutes the secretory effect reaches its maximum and the pH its lowest value (pHhistamine stimulated stomach) which, owing to the continuous infusion of histamine, remains constant. The compounds to be tested are then administered intravenously and the pH is continuously recorded. By considering the highest pH value recorded, which evidences the maximum antisecretory effect reached with the test compound (pHM.A.E.) and using the following equation [formula] the percent inhibition of gastric acid secretion may be easily calculated.

The ED50 is the dose at which the effect has come halfway, by size or by number of responders.

On to `CCCCC(C)(OC)C(O)/C=C/[C@H]1[C@H](O)CC(=O)[C@@H]1CCCCCCC(=O)OC` (single isomer, unassigned) [Example 1F, 11α,15-dihydroxy-16-methoxy-16-methyl-9-oxo-prosta-13(E)-ene-1-oic acid methyl ester], for which the “block of gastric acid secretion” value with gastric acid secretion is given as “about 60%”. Also, in experiment [1] (3 μg/kg (lowest dose tested)), the “percent inhibition of the ulcers with respect to controls” value is given as “about 43%”. The ED50 in experiment [1] (Rattus norvegicus, calculated by extrapolation, read-out: ED50 (dose which provokes an inhibition of the ulcers with respect to controls of 50%)) is 6 µg/kg. Moreover, the “cytoprotective activity (in words)” value in experiment [1] is “very active even at very low doses”. Besides, the “% Inhibition of the acid gastric secretion” value is given as 15% in experiment [2] (2.5 μg/kg), 63% in experiment [2] (10 μg/kg), 90% in experiment [2] (20 μg/kg) and 100% in experiment [2] (50 μg/kg).
